The values that follow come from a melting point compilation (Tetko et al.; mined from patent text by program, amines drawn as free bases though some values may be those of a salt).

Take `Cn1cnc(COc2nn3c(-c4ccccc4)nnc3cc2-c2ccccc2)n1`: the melting point (commonly the temperature of the solid-liquid transition) was 229 to 233 °C.
With `CC(C)c1cc(-c2ccc(N)c3ccccc23)nc(N)n1`, the melting point fell in the range of 185 to 186 °C.
Take `O=C1O[C@@H](Cn2ccnn2)CN1c1ccc(-c2ccc(CN3CCOCC3)nc2)c(F)c1`: the melting point worked out at 175 °C.
Under `CCOC(=O)c1ccc2c(c1)C(=O)N(C1CC(C)(C)N(C(C)=O)C(C)(C)C1)C2=O` stands 119 to 121 °C.
The result for `CNc1ccc(C(=O)Nc2cccc(-c3nc(NC)nc4cc(OC)c(OC)cc34)c2)cn1` reads 193 to 195 °C.
`COCCC(=O)N[C@H]1CC[C@H](CCN2CCN(c3nccc4ccoc34)CC2)CC1` showed a melting point of 146 °C.
Under `Nc1c(NC(=O)CCl)ccc2c1C(=O)c1ccccc1C2=O` stands 193 to 194 °C.
Under `CCCCCCNc1cccc2c1C(=O)c1cccc(NCCCCCC)c1C2=O` stands 142 to 144 °C; under `O=C(O)C#Cc1ccccn1`, 130 °C.
Molecule `Cc1c(C(=O)N[C@@H]2CN3CCC2CC3)c2ccccc2n1C` displayed a melting point of 176 to 177 °C.
The result for `OCc1sccc1C=Cc1csc2ccccc12` reads 114 to 115 °C; that for `Cc1c(Cl)sc2c1c(-c1ccccc1F)nc(=O)n2C`, 175 to 176 °C.
Under `Nc1ccc(S(=O)(=O)Nc2ccn(CC3CC3)c(=O)n2)cc1` stands 87 to 95 °C.
Under `Cc1cc(-c2ccc(C(F)(F)F)cc2)nc2c(C(=O)Nc3cccc(S(C)(=O)=O)c3)cnn12` stands 198 to 200 °C.
Regarding `O=C(Nc1ccncn1)c1ccccc1SSc1ccccc1C(=O)Nc1ccncn1`, the melting point was 234 to 235 °C.
Under `NS(=O)(=O)c1cccc(NC(=O)c2cnn3c(C(F)F)cc(-c4ccc(Cl)c(Cl)c4)nc23)c1` stands 306 °C; under `CCOc1nn(-c2ccc(C(F)(F)F)cn2)cc1CCCOc1cccc(C(C)(C)C(=O)O)c1`, 131 to 132 °C; under `CCCOc1ccccc1-c1nc2cc(N)ccc2c(=O)[nH]1`, 185 °C.
Regarding `COC(=O)c1c(F)c(F)c(F)c(F)c1C(=O)OC`, the melting point is 68 to 70 °C.
The result for `CCC(C(=O)c1ccc(Cl)cc1)n1ncn(-c2ccc(N3CCN(c4ccc(O)cc4)CC3)cn2)c1=O` (centres undefined) reads 186 °C.
For `CCOC(=O)C(C)(C)Oc1ccc(C=CC(=O)c2ccccc2)cc1`, the melting point lay within 68 to 70 °C.
Molecule `CCn1nc(C#N)c(=O)c2ccccc21` had a melting point of 216 to 218 °C.
As to `CNC(=O)NCCn1c(-c2ccc(CN3CCOCC3)c(C)c2)csc1=Nc1ccc(F)c(C)c1`, the melting point is 139 to 140 °C.
In the case of `Cc1nc(N(C)C)sc1C(=O)c1ccc(N)c(N)c1`, the melting point was in the range of 174 to 178 °C.
Under `COC1(c2ccc(N(C)C)cc2)OC(=O)c2cc(N(C)C)ccc21` (centres undefined) stands 140 to 147 °C; under `CCOC(=O)C1=CC(C)(C(=O)N(C)C)SC1N` (centres undefined), 122 to 124 °C.
Under `O=C(O)Cn1ccn(C2CCc3ccccc3C2)c1=S` (centres undefined) stands 228 to 230 °C; under `OC1OC(Cn2cncn2)(c2ccc(Cl)cc2)c2ccccc21` (centres undefined), 215 to 217 °C.
Under `CC(=O)C1CCC2C3CCC4CC(O)CCC4(C)C3C(O)CC12C` (centres undefined) stands 152 to 154 °C.
Regarding `CC1(C)SC(c2ccc([N+](=O)[O-])o2)NC1C(=O)O` (centres undefined), the melting point fell in the range of 147 to 148 °C.
The molecule `CCCc1nn(CC)c2c(=O)[nH]c(-c3cc(S(=O)(=O)N4CCN(CCO)CC4)ccc3OCC)nc12` showed a melting point of 191 to 193 °C.
Under `Cc1cccc(S(=O)(=O)N2CCCC2c2ccc(F)cc2)c1` (racemic) stands 102 °C; under `Cc1cnc(NC(=O)C2=C(O)c3ccc4ccccc4c3S(=O)(=O)N2C)s1`, 249 to 250 °C; under `[N-]=[N+]=CC(=O)C(Cc1ccc(F)cc1)NC(=O)OCc1ccccc1` (racemic), 97 °C.
The result for `CCOC(=O)C(=CNc1cccc(C(F)(F)F)n1)C(=O)OCC` reads 125 to 128 °C.
The result for `CN1C(=O)CN=C(c2ccccc2Cl)c2cc([N+](=O)[O-])ccc21` reads 220 °C; that for `OCC1=Cc2cc3ccccc3n2CC1`, 139 to 142 °C; that for `CCN(CC)C(=O)COc1ccc(S(=O)(=O)c2ccc(O)cc2)cc1`, 223 to 226 °C.
For the molecule `N#CC(c1ccc(O)cc1)c1c(Cl)cc(-n2ncc(=O)[nH]c2=O)cc1Cl` (centres undefined), the melting point worked out at 210 °C.
The molecule `ON=C1CCc2c([nH]c3ccccc23)C1` registered a melting point of 196 °C.
Consider `N#CC1(O)COc2ccccc2OC1`, for which the melting point was 108 to 110 °C.
The molecule `N#CCc1ccc(Br)nc1` showed a melting point of 55.5 to 57.5 °C.
For the molecule `CCCCCCCCCCCCCCCCCC1CC(O)C(CC)C(=O)O1` (racemic), the melting point lay in the range of 101 to 102 °C.
Regarding `CC(C)(C)OC(=O)N[C@@H](Cc1ccccc1)C(=O)NCCCN1CCN(CCCNc2cccc3c2C(=O)c2ccccc2C3=O)CC1`, the melting point stood at 168 °C.
Under `CCOC(=O)C1NCc2[nH]c3cccc(OCc4ccccc4)c3c2C1COC` (centres undefined) stands 170 to 171 °C; under `CCOP(=O)(CCN1CCC(N(C)S(=O)(=O)c2ccc(Nc3nccc(Nc4ccc(F)cc4)n3)cc2)CC1)OCC`, 95 to 100 °C; under `Cc1ccc(S(=O)(=O)ON=C(CCN2C(=O)c3ccccc3C2=O)n2nc(C)c(Cl)c2N)cc1`, 168 to 171 °C.
The molecule `COC(=O)Nc1nn2cccc2c(=O)[nH]1` gave a melting point of 232 °C.
For the molecule `COc1cccc(C=O)c1OCc1cccc2ccccc12`, the melting point was in the range of 98 to 99 °C.
Under `O=c1[nH]c2sccc2c(=O)n1CCN1CCN(c2ccccc2)CC1` stands 228 to 230 °C.
The molecule `CCCc1c([C@@H]2C[C@H]2c2ccccc2)oc2ccc(C(=O)OC)cc2c1=O` (relative stereo) displayed a melting point of 171 to 173 °C.
For `CCOC(=O)COc1ccc(NC(=O)c2cnc(NC(=N)N)s2)cc1`, the melting point was found to be 218 °C.
Regarding `NC(=O)c1cc([N+](=O)[O-])ccc1I`, the melting point lay within 230 to 233 °C.
Under `COC(=O)c1cc2c3cc(C(C)=O)ccc3n(C)c2s1` stands 196 to 198 °C; under `OC(c1ccccc1)C1CCN1C(c1ccccc1)c1ccccc1` (centres undefined), 87.5 to 88.5 °C.
Under `CN(C)C=NS(=O)(=O)c1cc(CCNC(=O)C(F)(F)F)ccc1-c1ccco1` stands 150 °C.
In the case of `CNC(=O)C(CNC(=O)c1ccccc1)NC(=O)OC(C)(C)C` (centres undefined), the melting point is 222 to 223 °C.
Under `Cc1cc2c3c(cc(C)c2[nH]c1=O)C(C)C(C(C)N)O3` (centres undefined) stands 195 to 207 °C; under `Cc1nn(C)c(O)c1C(=O)c1ccc(S(C)(=O)=O)c(-c2cnco2)c1Cl`, 236 to 241 °C; under `COc1ccc(-c2cc(C)cn2-c2ccc(S(=O)(=O)NC(C)=O)cc2)cc1`, 215 to 217 °C.
The result for `CCOC(=O)C(C#N)=NOC(=O)OCC(Cl)(Cl)Cl` reads 51 to 53 °C.
The molecule `O=C(NC(=O)c1ccc2ncccc2c1)NC1CCN(Cc2ccc3ccccc3c2)CC1` gave a melting point of 211 to 213 °C.
Under `CN1C(=O)CC[C@]2(C)c3ccc(-c4cccc5ncccc45)cc3CC[C@@H]12` stands 100 to 104 °C; under `COc1cccc(-c2c3cccc(OC(C)=O)c3c(OC(C)=O)c3c(OC(C)=O)cccc23)c1`, 278 °C; under `c1ccc2c3c([nH]c2c1)CCN(CCCCc1ccncc1)C3`, 204 to 206 °C.
The result for `O=C(Nc1cccc(-c2ccnc3c(C(=O)c4cccs4)cnn23)c1)c1cc(C(F)(F)F)ccc1C(F)(F)F` reads 208 to 210 °C; that for `CCOC(=O)C(=O)Nc1ccc(OC)c(NC(=O)C(=O)OCC)c1`, 140 to 145 °C.
For the molecule `COCc1nc(N)nc(N)c1-c1c(Cl)cccc1Cl`, the melting point fell in the range of 204 to 207 °C.
Turning to `CON=C(C(=O)O)C1(CCl)OCCO1`, the melting point was 80 to 81 °C.
`O=Cc1ccccc1C(=O)c1ccccc1` displayed a melting point of 64 to 67 °C.
The result for `Cc1ccc(F)c([Si](C)(C)C)c1C(=O)N(C)C(C)(C)C` reads 44 to 47 °C; that for `FC(F)(F)Oc1ccc(-n2cnc(-c3ccc(CBr)cc3)n2)cc1`, 124 to 126 °C; that for `O=C(c1ccc(-n2ccnc2-c2ccccc2)cc1)C1CC1`, 155 to 157 °C.
`CCCN1C(=O)C2(COc3cc4c(cc32)OCO4)c2ccccc21` (centres undefined) came in with a melting point of 158 to 160 °C.
For `CCOP(=O)(/C=C/c1cn(-c2ccccc2)nc1OCc1ccc(OCc2nc(-c3ccccc3)oc2C)c(OC)c1)OCC`, the melting point fell in the range of 92 to 93 °C.
`O=C(O)COc1ccc(SCc2cc(-c3ccc(C(F)(F)F)cc3)no2)c2c1CCC2` displayed a melting point of 166 to 168 °C.
The result for `O=C(c1ccncc1)c1cc(-c2ccc(Cl)cc2)c(N2CCOCC2)s1` reads 117 °C; that for `CCOc1nc(C)nc(N2CCc3ccccc3CC2)c1C#N`, 106 to 109 °C; that for `CCC(O)(CO)c1ccc(OCc2ccc3ccccc3c2)c(OC)c1` (centres undefined), 120 °C.
`N#Cc1ccc(Cl)cc1NC(CCO)c1ccccc1` (centres undefined) registered a melting point of 88 to 90 °C.
The result for `O=C(NCCOc1ccc(CC(Oc2ccccc2)C(=O)O)cc1)c1ccc(-c2ccc(F)cc2)cc1` (centres undefined) reads 195 to 196 °C; that for `CCN(C(=O)CCCCc1nnnn1C1CCCCC1)C1CCCCC1`, 92 to 95 °C.
The result for `COC(=O)c1sc(C(F)(F)F)cc1OC` reads 78 to 79 °C; that for `CC(C)(C)N(C(=O)C(O)(C(=O)O)c1ccccc1)C(C)(C)C` (centres undefined), 99 to 100 °C.
Molecule `CC(C)c1cc(C(C)C)n(-c2ccc(NC(=O)c3cccnc3)cc2)n1` had a melting point of 190 to 192 °C.
Take `COC(=O)c1cc(=NS(=O)(=O)c2ccc(C)cc2)c2c(Cl)cc(Cl)cc2[nH]1`: the melting point was 210 to 212 °C.
Under `C#CC(CC(=O)OC(C)(C)C)N=Cc1ccccc1` (centres undefined) stands 199 to 200 °C.
Under `COc1cc2cc(CO)c(CO)c(C)c2cc1OC` stands 180 to 182 °C; under `O=C1NCN(c2ccccc2)C12CCN(CCCn1c(=O)[nH]c3ccccc31)CC2`, 228 °C.
